Data: patent publication US12685983B2, “Benefit agent delivery system” (ITC Limited, priority 2020, dated 2026)
Where two headings read alike, the source gives them in different places.

Tests used:
[1] = GC-head space: effect of enablers on the encapsulation of menthol and limonene combination by PVP; assay type: physicochemical; settings: for GC-HS area (% of control sample) Limonene / GC-HS area (% of control sample) Menthol / GC-HS area Limonene / GC-HS area Menthol: menthol + limonene with PVP
[2] = GC head space of benefit agents in the presence of PVP and BHT; assay type: physicochemical
[3] = cited from earlier work
[4] = UV-vis spectroscopy of enabler interaction with PVP (absorbance at 236 nm); assay type: physicochemical
[5] = GC-head space: effect of enablers on the encapsulation of menthol by PVP; assay type: physicochemical; settings: for ability of enabler to encapsulate menthol: GC-Head space against control; for ability of enabler to encapsulate menthol / GC-HS area Menthol: with PVP; for GC-HS area (% of control sample): menthol, control without PVP

| Structure (SMILES) | LogP value [3] | GC-HS area Menthol ([5]; enabler concentration 0.05%) | GC-HS area Menthol ([5]; enabler concentration 0.1%) | GC-HS area (% of control sample) ([5]; enabler 0.05%) | GC-HS area (% of control sample) ([5]; enabler 0.1%) | GC-HS area (% of control sample) Limonene ([1]; enabler 0.05%) | GC-HS area (% of control sample) Menthol ([1]; enabler 0.05%) | GC-HS area Limonene ([1]; enabler 0.05%) | GC-HS area Menthol ([1]; enabler 0.05%) | GC-HS area (% of control sample) Limonene ([1]; enabler 0.1%) | GC-HS area (% of control sample) Menthol ([1]; enabler 0.1%) | GC-HS area Limonene ([1]; enabler 0.1%) | GC-HS area Menthol ([1]; enabler 0.1%) | GC-HS area (% of control sample) Limonene ([1]; enabler 0.5%) | GC-HS area (% of control sample) Menthol ([1]; enabler 0.5%) | GC-HS area Limonene ([1]; enabler 0.5%) | GC-HS area Menthol ([1]; enabler 0.5%) | also measured |
| --- | --- | --- | --- | --- | --- | --- | --- | --- | --- | --- | --- | --- | --- | --- | --- | --- | --- | --- |
| CC1CCC(C(C)C)C(O)C1 (stereo not shown) [Menthol] |  |  |  |  |  |  |  |  |  |  |  |  |  |  |  |  |  | selectivity of encapsulation in menthol and limonene combination ([1]; PVP with enablers): preferentially encapsulated as against limonene |
| CC1=CCC2CC1C2(C)C (stereo not drawn) [α-Pinene] | 4.83 |  |  |  |  |  |  |  |  |  |  |  |  |  |  |  |  | encapsulation by PVP in the presence of BHT as enabler [2]: not encapsulated |
| Oc1cc(Cl)ccc1Oc1ccc(Cl)cc1Cl [Triclosan] |  | 4977 | 3482 | 6.63 % of control sample | 4.64 % of control sample | 95.29 % of control sample | 3.59 % of control sample | 1925700 | 759 | 99.50 % of control sample | 1.30 % of control sample | 1916012 | 274 | 105.82 % of control sample | 3.98 % of control sample | 2027488 | 841 | Absorbance [4]: 0.961; interaction of enabler with PVP [4]: stronger interaction with PVP; ability of enabler to encapsulate menthol [5]: effectively encapsulate menthol; GC-HS area Menthol ([5]; enabler concentration 0.3%): 6103; GC-HS area (% of control sample) ([5]; enabler 0.3%): 8.14 % of control sample |
| CC(=O)O [Acetic acid] |  | 708 | 1030 | 0.94 % of control sample | 1.37 % of control sample | 91.77 % of control sample | 0.50 % of control sample | 1860568 | 105 | 112.66 % of control sample | 0.82 % of control sample | 2096101 | 174 | 97.95 % of control sample | 1.89 % of control sample | 2053175 | 399 | ability of enabler to encapsulate menthol [5]: effectively encapsulate menthol; GC-HS area Menthol ([5]; enabler concentration 0.5%): 925; GC-HS area (% of control sample) ([5]; enabler 0.5%): 1.23 % of control sample |
| CCCCC(CC)COC(=O)C=Cc1ccc(OC)cc1 (stereo not shown) [Octyl methoxy cinnamate] | 5.8 |  |  |  |  |  |  |  |  |  |  |  |  |  |  |  |  |  |
| CCCCCCCCCCCCCCCCO [Cetyl alcohol, reference compound] | 7.25 |  |  |  |  |  |  |  |  |  |  |  |  |  |  |  |  | interaction of the enabler with the polymer ([4]; UV-vis, concentration not given): No interaction |
| CC(C)=O [Acetone] |  | 541 | 179 | 0.72 % of control sample | 0.24 % of control sample | 88.91 % of control sample | 1.04 % of control sample | 1825472 | 220 | 103.37 % of control sample | 1.74 % of control sample | 1886916 | 369 | 106.24 % of control sample | 4.21 % of control sample | 2004605 | 891 | ability of enabler to encapsulate menthol [5]: effectively encapsulate menthol; GC-HS area Menthol ([5]; enabler concentration 0.5%): 199; GC-HS area (% of control sample) ([5]; enabler 0.5%): 0.27 % of control sample |
| CCCCCCCCCCCCN [Dodecyl amine] | 4.76 |  |  |  |  |  |  |  |  |  |  |  |  |  |  |  |  |  |
| CCCCCCCCCCN [decyl amine] | 1.92 |  |  |  |  |  |  |  |  |  |  |  |  |  |  |  |  |  |
| Cc1cc(C(C)(C)C)c(O)c(C(C)(C)C)c1 [BHT, Butylated hydroxy toluene] |  | 10608 | 10773 | 14.14 % of control sample | 14.36 % of control sample | 108.95 % of control sample | 23.30 % of control sample | 1813235 | 4929 | 102.91 % of control sample | 30.48 % of control sample | 1866057 | 6449 | 108.30 % of control sample | 58.28 % of control sample | 2020945 | 12330 | Absorbance ([4]; 236 nm, enabler 10 ppm with PVP in 95% v/v ethanol): 0.155; interaction of enabler with PVP ([4]; UV-vis, 10 ppm): comparatively lower activities; GC-HS area Menthol ([5]; enabler concentration 0.5%): 8798; GC-HS area (% of control sample) ([5]; enabler 0.5%): 11.73 % of control sample |
| CCCCCCCCCCCC(=O)OC [methyl laurate] | 5.41 |  |  |  |  |  |  |  |  |  |  |  |  |  |  |  |  |  |
